Measurements taken from patent US20070128217A1 (priority 2003, published 2007).

Key:
[1] = tested on: antibodies in sera from SARS patients (sera 1a, 1b, 2, 6, 37, 62, London, SARS-yellow, SARS-green); assay type: binding, human; set-up: Binding of serum 6 to linear peptides of protein X1 of SARS-CoV Urbani / Binding of serum 37 to linear peptides of protein X1 of SARS-CoV Urbani / Binding of serum 6 to looped/cyclic peptide (PEPSCAN-ELISA) / Binding of serum 37 to looped/cyclic peptide (PEPSCAN-ELISA) / Binding of serum 37 to looped/cyclic peptides of protein X1 of SARS-CoV Urbani / Binding of serum 6 to linear peptides of protein X2 / Binding of serum 37 to linear peptides of protein X2 / Binding of serum 37 to looped/cyclic peptides of protein X2 of SARS-CoV Urbani / Binding of serum 6 to linear peptides of protein M of SARS-CoV Urbani / Binding of serum 37 to linear peptides of protein M of SARS-CoV Urbani / Binding of serum 6 to looped/cyclic peptides of protein M of SARS-CoV Urbani / Binding of serum 37 to looped/cyclic peptides of protein M of SARS-CoV Urbani / Binding of serum 6 to linear peptides of protein X3 of SARS-CoV Urbani / Binding of serum 37 to linear peptides of protein X3 of SARS-CoV Urbani / Binding of serum 37 to looped/cyclic peptides of protein X3 of SARS-CoV Urbani / Binding of serum 6 to linear peptides of protein X4 of SARS-CoV Urbani / Binding of serum 37 to linear peptides of protein X4 of SARS-CoV Urbani / Binding of serum 37 to looped/cyclic peptides of protein X4 of SARS-CoV Urbani / Binding of serum 6 to linear peptides of protein X5 of SARS-CoV Urbani / Binding of serum 37 to linear peptides of protein X5 of SARS-CoV Urbani / Binding of serum 37 to looped/cyclic peptides of protein X5 of SARS-CoV Urbani / Binding of serum 6 to linear peptides of protein N of SARS-CoV Urbani / Binding of serum 37 to linear peptides of protein N of SARS-CoV Urbani / Binding of serum 6 to linear peptide (PEPSCAN-ELISA) / Binding of serum 1a to looped/cyclic peptides of protein N of SARS-CoV Urbani / Binding of serum 1b to looped/cyclic peptides of protein N of SARS-CoV Urbani / Binding of serum 2 to looped/cyclic peptides of protein N of SARS-CoV Urbani / Binding of serum 6 to looped/cyclic peptides of protein N of SARS-CoV Urbani / Binding of serum 37 to looped/cyclic peptides of protein N of SARS-CoV Urbani / Binding of serum 62 to looped/cyclic peptides of protein N of SARS-CoV Urbani / Binding of serum London to looped/cyclic peptides of protein N of SARS-CoV Urbani / Binding of serum SARS-green to looped/cyclic peptides of protein N of SARS-CoV Urbani: unit not given here
[2] = tested on: control sera (pooled serum of ten healthy LUMC hospital workers; commercial negative donor pooled serum from the Dutch bloodbank); assay type: binding, human; set-up: Binding of Control serum LUMC to linear peptides / Binding of Control serum Blood-bank to linear peptides / Binding of Control serum LUMC to looped peptides / Binding of Control Serum Blood-Bank to Looped peptides / Binding of Control serum LUMC to linear peptides of the protein M of SARS-CoV Urbani / Binding of Control serum Blood-bank to linear peptides of the protein M of SARS-CoV Urbani / Binding of Control serum LUMC to looped peptides of the protein M of SARS-CoV Urbani / Binding of Control Serum Blood-Bank to Looped peptides of the protein M of SARS-CoV Urbani: unit not given here
[3] = tested on: rabbit serum obtained by immunizing a rabbit with the SARS-CoV strain Frankfurt 1; assay type: binding; set-up: Binding of a rabbit serum to linear peptides / Binding of a rabbit serum to looped peptides / Rabbit serum linear peptides / Rabbit serum looped peptides / Binding of a rabbit serum to linear peptides of protein N of SARS-CoV Urbani (Rabbit serum linear peptides) / Binding of a rabbit serum to looped/cyclic peptides of protein N of SARS-CoV Urbani (Rabbit serum looped peptides): unit not given here
[4] = tested on: recombinant human anti-SARS-CoV antibody 03-018; assay type: binding; set-up: Binding of antibody 03-018 to linear peptides of the N protein of SARS-CoV Urbani / Binding of antibody 03-018 to looped/cyclic peptides of the N protein of SARS-CoV Urbani: unit not given here

Sequence	Binding of serum 1a to linear peptide (PEPSCAN-ELISA) [1]	Binding of serum 1a to looped/cyclic peptides of protein N of SARS-CoV Urbani [1]	Binding of serum 1b to linear peptide (PEPSCAN-ELISA) [1]	Binding of serum 1b to looped/cyclic peptides of protein N of SARS-CoV Urbani [1]	Binding of serum 2 to linear peptide (PEPSCAN-ELISA) [1]	Binding of serum 2 to looped/cyclic peptides of protein N of SARS-CoV Urbani [1]	Binding of serum 6 to linear peptide (PEPSCAN-ELISA) [1]	Binding of serum 6 to looped/cyclic peptides of protein N of SARS-CoV Urbani [1]	Binding of serum 37 to linear peptide (PEPSCAN-ELISA) [1]	Binding of serum 37 to looped/cyclic peptides of protein N of SARS-CoV Urbani [1]	Binding of serum 62 to linear peptide (PEPSCAN-ELISA) [1]	Binding of serum 62 to looped/cyclic peptides of protein N of SARS-CoV Urbani [1]	Binding of serum London to linear peptide (PEPSCAN-ELISA) [1]	Binding of serum London to looped/cyclic peptides of protein N of SARS-CoV Urbani [1]	Binding of serum SARS-green to linear peptide (PEPSCAN-ELISA) [1]	Binding of serum SARS-green to looped/cyclic peptides of protein N of SARS-CoV Urbani [1]	Binding of serum SARS-yellow to linear peptide (PEPSCAN-ELISA) [1]	Binding of serum SARS-yellow to looped/cyclic peptides of protein N of SARS-CoV Urbani [1]	Binding of Control Serum Blood-Bank to Looped peptides [2]	Binding of Control serum Blood-bank to linear peptides [2]	other results
GFYAEGSRGGSQASS	0.3	0.3	0.1	0.2	0.2	0.4	0.4	0.3	0.7	0.3	0.5	0.2	0.4	0.3	0.1	0.3	0.4	0.1	0.5	0.7	Binding of Control serum LUMC to linear peptides [2]: 0.6; Binding of Control serum LUMC to looped peptides [2]: 0.5; Binding of a rabbit serum to linear peptides of protein N of SARS-CoV Urbani (Rabbit serum linear peptides) [3]: 0.1; Binding of a rabbit serum to looped/cyclic peptides of protein N of SARS-CoV Urbani (Rabbit serum looped peptides) [3]: 0.0; Binding of antibody 03-018 to linear peptides of the N protein of SARS-CoV Urbani [4]: 0.1; Binding of antibody 03-018 to looped/cyclic peptides of the N protein of SARS-CoV Urbani [4]: 0.2
GGETALALLLLDRLN	0.2	0.4	0.1	0.3	0.2	0.5	0.2	0.2	0.6	0.7	0.6	0.7	0.4	0.5	0.4	0.3	0.5	0.7	0.8	0.7	Binding of Control serum LUMC to linear peptides [2]: 0.6; Binding of Control serum LUMC to looped peptides [2]: 0.8; Binding of a rabbit serum to linear peptides of protein N of SARS-CoV Urbani (Rabbit serum linear peptides) [3]: 0.1; Binding of a rabbit serum to looped/cyclic peptides of protein N of SARS-CoV Urbani (Rabbit serum looped peptides) [3]: 0.6; Binding of antibody 03-018 to linear peptides of the N protein of SARS-CoV Urbani [4]: 0.1; Binding of antibody 03-018 to looped/cyclic peptides of the N protein of SARS-CoV Urbani [4]: 0.2
GGGETALALLLLDRL	0.2	0.4	0.1	0.3	0.1	0.5	0.1	0.2	0.7	0.8	0.5	0.7	0.4	0.4	0.2	0.3	0.6	0.7	0.7	0.5	Binding of Control serum LUMC to linear peptides [2]: 0.6; Binding of Control serum LUMC to looped peptides [2]: 0.8; Binding of a rabbit serum to linear peptides of protein N of SARS-CoV Urbani (Rabbit serum linear peptides) [3]: 0.1; Binding of a rabbit serum to looped/cyclic peptides of protein N of SARS-CoV Urbani (Rabbit serum looped peptides) [3]: 0.7; Binding of antibody 03-018 to linear peptides of the N protein of SARS-CoV Urbani [4]: 0.1; Binding of antibody 03-018 to looped/cyclic peptides of the N protein of SARS-CoV Urbani [4]: 0.2
GGSQASSRSSSRSRG	0.3	0.3	0.1	0.2	0.3	0.4	0.4	0.4	0.7	0.5	0.7	0.4	0.5	0.4	0.7	0.0	0.9	0.3	0.6	0.7	Binding of Control serum LUMC to linear peptides [2]: 0.8; Binding of Control serum LUMC to looped peptides [2]: 0.6; Binding of a rabbit serum to linear peptides of protein N of SARS-CoV Urbani (Rabbit serum linear peptides) [3]: 0.2; Binding of a rabbit serum to looped/cyclic peptides of protein N of SARS-CoV Urbani (Rabbit serum looped peptides) [3]: 0.5; Binding of antibody 03-018 to linear peptides of the N protein of SARS-CoV Urbani [4]: 0.1; Binding of antibody 03-018 to looped/cyclic peptides of the N protein of SARS-CoV Urbani [4]: 0.2
